Measured values taken from US20100099561A1, “HETEROBICYCLIC ALKYLTHIO-BRIDGED ISOXAZOLINES” (E.I. DU PONT DE NEMOURS AND COMPANY, priority 2008, published 2010).

Legend:
Assay type in all cases: in vivo
[1] = test system: Surinam grass (Brachiaria decumbens); experiment: Test B preemergence, Surinam grass; conditions: Preemergence, scale 0 to 100
How it was run: (§1)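 Visually scored percent control (0–100) after 13 to 15 days in a greenhouse, following preemergence application of compound formulated with surfactant in a non-phytotoxic solvent to seeds in loam soil/sand.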

[2] = test system: wheat (Triticum aestivum); experiment: Test B preemergence, wheat; conditions: Preemergence, scale 0 to 100
How it was run: as §1

[3] = test system: woolly cupgrass (Eriochloa villosa); experiment: Test B preemergence, woolly cupgrass; conditions: scale 0 to 100
How it was run: as §1

[4] = test system: umbrella sedge (Cyperus difformis); experiment: Test B flooded paddy test, umbrella sedge; conditions: Flood, scale 0 to 100
How it was run: (§2)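 Compounds were added directly to paddy water over 2-leaf-stage plants in pots flooded 3 cm above soil, water depth maintained. Visual injury scored against controls after 13 to 15 days in greenhouse, 0 (none) to 100 (complete control); dash indicates no result.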

[5] = test system: barnyardgrass (Echinochloa crus-galli); experiment: Test A preemergence, barnyardgrass; conditions: 0 to 100 scale (0 no effect, 100 complete control)
How it was run: (§3)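 Each compound, in a non-phytotoxic solvent mixture with surfactant, is applied to soil at planting and, concurrently, to young one- to two-leaf plants. After approximately ten greenhouse days, visual response is rated 0 (no effect) to 100 (complete control) against untreated controls.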

[6] = test system: lambsquarters (Chenopodium album); experiment: Test B preemergence, lambsquarters; conditions: scale 0 to 100
How it was run: as §1

[7] = test system: bermudagrass (Cynodon dactylon); experiment: Test B preemergence, bermudagrass; conditions: scale 0 to 100
How it was run: as §1

[8] = test system: catchweed bedstraw (Galium aparine); experiment: Test B preemergence, catchweed bedstraw; conditions: scale 0 to 100
How it was run: as §1

[9] = test system: Italian ryegrass (Lolium multiflorum); experiment: Test B preemergence, Italian ryegrass; conditions: Preemergence, scale 0 to 100
How it was run: as §1

[10] = test system: pigweed (Amaranthus retroflexus); experiment: Test A postemergence, pigweed; conditions: 0 to 100 scale (0 no effect, 100 complete control)
How it was run: as §3

corn (Zea mays) [11] = experiment: Test A preemergence, corn; conditions: 0 to 100 scale (0 no effect, 100 complete control)
How it was run: as §3

[12] = test system: nightshade (eastern black nightshade, Solanum ptycanthum); experiment: Test B preemergence, nightshade; conditions: scale 0 to 100
How it was run: as §1

[13] = test system: giant foxtail (Setaria faberi); experiment: Test A postemergence, giant foxtail; conditions: 0 to 100 scale (0 no effect, 100 complete control)
How it was run: as §3

[14] = test system: barnyardgrass (Echinochloa crus-galli); experiment: Test B flooded paddy test, barnyardgrass; conditions: Flood
How it was run: as §2

[15] = test system: wheat (Triticum aestivum); experiment: Test A postemergence, wheat; conditions: 0 to 100 scale (0 no effect, 100 complete control)
How it was run: as §3

[16] = test system: cocklebur (Xanthium strumarium); experiment: Test B preemergence, cocklebur; conditions: scale 0 to 100
How it was run: as §1

[17] = test system: large crabgrass (Digitaria sanguinalis); experiment: Test A preemergence, large crabgrass; conditions: 0 to 100 scale (0 no effect, 100 complete control)
How it was run: as §3

[18] = test system: velvetleaf (Abutilon theophrasti); experiment: Test A postemergence, velvetleaf; conditions: 0 to 100 scale (0 no effect, 100 complete control)
How it was run: as §3

[19] = test system: pigweed (Amaranthus retroflexus); experiment: Test A preemergence, pigweed; conditions: 0 to 100 scale (0 no effect, 100 complete control)
How it was run: as §3

corn (Zea mays) [20] = experiment: Test A postemergence, corn; conditions: 0 to 100 scale (0 no effect, 100 complete control)
How it was run: as §3

CC1(C)CC(S(=O)(=O)Cc2c(C(F)(F)C(F)(F)F)nc3n(c2=O)CCC3)=NO1 [Compound 22]
Plant response rating, Surinam Grass ([1]; 16 g ai/ha): 0
Plant response rating, Surinam Grass ([1]; 31 g ai/ha): 0
Plant response rating, Surinam Grass ([1]; 62 g ai/ha): 90
Plant response rating, Surinam Grass ([1]; 125 g ai/ha): 95
Plant response rating, Wheat ([2]; 16 g ai/ha): 0
Plant response rating, Wheat ([2]; 31 g ai/ha): 0
Plant response rating, Wheat ([2]; 62 g ai/ha): 0
Plant response rating, Wheat ([2]; 125 g ai/ha): 10
Plant response rating, Cupgrass, Woolly ([3]; 16 g ai/ha): 100
Plant response rating, Cupgrass, Woolly ([3]; 31 g ai/ha): 100
Plant response rating, Cupgrass, Woolly ([3]; 62 g ai/ha): 100
Plant response rating, Cupgrass, Woolly ([3]; 125 g ai/ha): 100
Plant response rating, Sedge, Umbrella ([4]; 62 g ai/ha): 0
Plant response rating, Sedge, Umbrella ([4]; 250 g ai/ha): 0
Plant response rating, Barnyardgrass ([5]; 125 g ai/ha): 80
Plant response rating, Barnyardgrass ([5]; 500 g ai/ha): 90
Plant response rating, Lambsquarters ([6]; 16 g ai/ha): 0
Plant response rating, Lambsquarters ([6]; 31 g ai/ha): 0
Plant response rating, Lambsquarters ([6]; 62 g ai/ha): 70
Plant response rating, Lambsquarters ([6]; 125 g ai/ha): 100
Plant response rating, Bermudagrass ([7]; 16 g ai/ha): 98
Plant response rating, Bermudagrass ([7]; 31 g ai/ha): 100
Plant response rating, Bermudagrass ([7]; 62 g ai/ha): 100
Plant response rating, Bermudagrass ([7]; 125 g ai/ha): 100
Plant response rating, Galium ([8]; 16 g ai/ha): 0
Plant response rating, Galium ([8]; 31 g ai/ha): 0
Plant response rating, Galium ([8]; 62 g ai/ha): 0
Plant response rating, Galium ([8]; 125 g ai/ha): 0
Plant response rating, Ryegrass, Italian ([9]; 16 g ai/ha): 0
Plant response rating, Ryegrass, Italian ([9]; 31 g ai/ha): 30
Plant response rating, Ryegrass, Italian ([9]; 62 g ai/ha): 100
Plant response rating, Ryegrass, Italian ([9]; 125 g ai/ha): 100
Plant response rating, Pigweed ([10]; 125 g ai/ha): 0
Plant response rating, Pigweed ([10]; 500 g ai/ha): 40
Plant response rating, Corn (corn (Zea mays) [11]; 125 g ai/ha): 0
Plant response rating, Corn (corn (Zea mays) [11]; 500 g ai/ha): 0
Plant response rating, Nightshade ([12]; 16 g ai/ha): 0
Plant response rating, Nightshade ([12]; 31 g ai/ha): 60
Plant response rating, Nightshade ([12]; 62 g ai/ha): 90
Plant response rating, Nightshade ([12]; 125 g ai/ha): 100
Plant response rating, Foxtail, Giant ([13]; 125 g ai/ha): 70
Plant response rating, Foxtail, Giant ([13]; 500 g ai/ha): 80
Plant response rating, Barnyardgrass ([14]; 62 g ai/ha, scale 0 to 100): 0
Plant response rating, Barnyardgrass ([14]; 250 g ai/ha, scale 0 to 100 (0 no effect, 100 complete control)): 0
Plant response rating, Wheat ([15]; 125 g ai/ha): 20
Plant response rating, Wheat ([15]; 500 g ai/ha): 50
Plant response rating, Cocklebur ([16]; 16 g ai/ha): 0
Plant response rating, Cocklebur ([16]; 31 g ai/ha): 0
Plant response rating, Cocklebur ([16]; 62 g ai/ha): 0
Plant response rating, Cocklebur ([16]; 125 g ai/ha): 0
Plant response rating, Crabgrass, Large ([17]; 125 g ai/ha): 90
Plant response rating, Crabgrass, Large ([17]; 500 g ai/ha): 100
Plant response rating, Velvetleaf ([18]; 125 g ai/ha): 20
Plant response rating, Velvetleaf ([18]; 500 g ai/ha): 60
Plant response rating, Pigweed ([19]; 125 g ai/ha): 10
Plant response rating, Pigweed ([19]; 500 g ai/ha): 90
Plant response rating, Corn (corn (Zea mays) [20]; 125 g ai/ha): 0
Plant response rating, Corn (corn (Zea mays) [20]; 500 g ai/ha): 0
